Source: patent US20040028714A1, “Composition having insect repellent characteristics” (priority 2000, published 2004)
Values joined by “and” are separate entries in the source; they are usually repeats but may differ in a detail not shown here. Equal entries are not always repeated.

Test system: Black Ants (Ochetellus sp)
Assay: Ant repellency on half-treated formica (Example 4)
Assay type: in vivo
Settings: 20 mg/m^2 on formica; for Number of Black Ants present, Treated Section / Number of Black Ants present, Untreated Section / Number of Black Ants, Dead: single replicates (n = 20); for Number of Black Ants present, Treated Section, Total / Number of Black Ants present, Untreated Section, Total / Number of Black Ants, Dead, Total: total of 4 replicates (80)
Procedure: The effectiveness of compound 2 (example 1) as an insect repellent was determined using ants exposed to a formica surface partially treated/partially untreated with compound 2, and was directly compared to the repellency of the well known insect repellents Farnesol and Dihydrofarnesal.
The study was conducted in an air conditioned laboratory at a temperature of 22°±2° C. under a normal day/night cycle, using Black Ants (Ochetellus sp) of mixed sex and age. The study ws conducted over a 3 day period and the repellent effectiveness assessed 1, 2 and 3 days after ant introduction.
One half of a rectangle of formica 40 cm×30 cm was treated at 20 mg/m^2 with the test compounds. This was achieved by soaking a paper wipe (Rag On A Roll approximately 20 cm×20 cm) in a solution of the test compound in ethanol, squeezing out the excess liquid and wiping over the surface to give the required coverage. This was checked by weighing the cloth after application. The surface was allowed to dry. The other half was wiped with ethanol alone (untreated surface).
The treated formica rectangle was placed on the bench and a glass ring (diameter 20 cm) was placed on the rectangle. This had been treated with fluon to prevent ant escape.
A small plastic container 2 cm in diameter was placed on the formica, one on the treated surface and one on the untreated surface. The plastic container placed on the treated surface had repellent applied in the same way as the treated formica. The plastic container on the untreated surface was wiped with ethanol.
24 hours after treatment (1 day) 20 ants were added to the centre of the formica. No food and water was supplied for these ants. 2 hours after this the number of ants on the treated and untreated surfaces was counted.
The above was repeated 3 times to provide a total of 4 replicates.
The above was repeated at 2 days and 3 days. New ants were used at each time period.

[1] = ants, average of days 1, 2 and 3

SMILES: CCNC(=O)C1CC(C)CCC1C(C)C (stereo not shown) [Compound 2, N-ethyl-p-menthane-3-carboxamide]
- ant repellency (in words) (1, 2 and 3 days after treatment): superior to these two products
- Number of Black Ants present, Treated Section (day 1): 0 (2×) and 2 and 1
- Number of Black Ants present, Untreated Section (day 1): 20 (2×) and 18 and 19
- Number of Black Ants, Dead (day 1): 0
- Number of Black Ants present, Treated Section, Total (day 1): 3
- Number of Black Ants present, Untreated Section, Total (day 1): 77
- Number of Black Ants, Dead, Total (day 1): 0
- Number of Black Ants present, Treated Section (day 2): 1 and 3 (2×) and 2
- Number of Black Ants present, Untreated Section (day 2): 19 and 17 (2×) and 18
- Number of Black Ants, Dead (day 2): 0
- Number of Black Ants present, Treated Section, Total (day 2): 9
- Number of Black Ants present, Untreated Section, Total (day 2): 71
- Number of Black Ants, Dead, Total (day 2): 0
- Number of Black Ants present, Treated Section (day 3): 0 and 1 and 2 and 3
- Number of Black Ants present, Untreated Section (day 3): 20 and 19 and 18 and 17
- Number of Black Ants, Dead (day 3): 0
- Number of Black Ants present, Treated Section, Total (day 3): 6
- Number of Black Ants present, Untreated Section, Total (day 3): 74
- Number of Black Ants, Dead, Total (day 3): 0
- Percentage Dead (ants, 1 day after treatment): 0%
- Percentage Present, Treated Section (ants, 1 day after treatment): 3.7%
- Percentage Present, Untreated Section (ants, 1 day after treatment): 96.3%
- Percentage Dead (ants, 2 days after treatment): 0%
- Percentage Present, Treated Section (ants, 2 days after treatment): 11.2%
- Percentage Present, Untreated Section (ants, 2 days after treatment): 88.8%
- Percentage Dead (ants, 3 days after treatment): 0%
- Percentage Present, Treated Section (ants, 3 days after treatment): 7.5%
- Percentage Present, Untreated Section (ants, 3 days after treatment): 92.5%
- Percentage Dead, Average [1]: 0%
- Percentage Present, Treated Section, Average [1]: 7.5%
- Percentage Present, Untreated Section, Average [1]: 92.5%
